Results reported in patent US9675591B2, “Methods for treating seizure disorders and pain” (THE REGENTS OF THE UNIVERSITY OF CALIFORNIA, priority 2013, dated 2017).

What was measured:
[1] = Acute toxicity, neurological status of rats (positional sense, muscle tone, gait and stance); format: in vivo; conditions: Sprague-Dawley, rat, in vivo, rats
Method: (§1) Abnormal neurological status in rats was evaluated by the positional sense test, the muscle tone test, and the gait and stance test. Inability of the rat to perform normally in at least two of these tests is taken as an indication of some neurological deficit.

rats = assay: as above; format: in vivo
Method: as §1

[2] = test system: lamotrigine resistant amygdala kindled rats; assay: Lamotrigine resistant amygdala kindled rats; format: in vivo
KCa2.1 = KCa2.1 (Homo sapiens (Human), UniProt Q92952); assay: Whole-cell patch-clamp, KCa2.1; format: cell-based
Method: (§2) HEK-293 or COS-7 cells stably expressing hKCa2.1, rKCa2.2, and hKCa2.3 have been described previously (Sankaranarayanan et al., 2009). Cells were held at −80 mV and KCa currents elicited by dialysis with a K^+ aspartate based internal containing 250 nM free Ca^2+ (pH 7.2, 290 mOsm, pipette resistance 1.5 MΩ). To reduce currents from native chloride channels, Na^+ aspartate Ringer was used as an external solution. KCa2 currents were recorded with 200-ms voltage ramps from −120 to +40 mV applied every 10 s, and the fold increase of slope conductance at −80 mV by drug was taken as a measure of channel activation. Data analysis, fitting, and plotting were performed with IGOR-Pro (Wavemetrics, Lake Oswego, Oreg., USA) and Origin 9.0 (OriginLab, Northampton, Mass., USA).

KCa2.2 (SK2) = KCa2.2 (SK2) (Rattus norvegicus, UniProt P70604); assay: Whole-cell patch-clamp, KCa2.2; format: cell-based, human; conditions: 250 nM free intracellular Ca2+
Method: as §2

Nav1.1 = Nav1.1 (Homo sapiens (Human), UniProt P35498); assay: Voltage-clamp, Nav1.1 in HEK-293 cells; format: cell-based; conditions: holding potential -90 mV, 0.1 Hz; read-out: EC50 or IC50, Nav1.1
Method: (§3) All experiments were conducted at room temperature (22-24° C.) with an EPC-10 amplifier and Pulse software (HEKA, Lambrecht/Pfalz, Germany) in the whole-cell mode of the patch-clamp technique. Human embryonic kidney (HEK)-293 cell lines stably expressing hNav1.1, hNav1.5, hNav1.7 channels (generously provided by Dr. Christopher Lossin, University of California Davis), hNav1.4 (Frank Lehmann-Horn, University of Ulm), or hKv2.1 channels (James Trimmer, University of California Davis) were bathed in extracellular solution containing (in mM): 160 NaCl; 4.5 KCl; 1 MgCl2; 2 CaCl2; 10 HEPES [pH was adjusted to 7.4 using NaOH (310 mOsm)]. Pipettes were filled with intracellular solution containing (in mM): 145 KF; 2 MgCl2; 10 ethylene glycol tetraacetic acid; 10 HEPES (pH adjusted to 7.2 with KOH; 300 mOsm). Neuroblastoma N1E-115 cells (ATCC, Manassa, Va., USA) expressing Nav1.2 were patched with a CsF internal solution consisting of (in mM): 10 NaF; 110 CsF; 20 CsCl; 2 ethylene glycol tetraacetic acid; 10 HEPES (CsOH to pH 7.35; 300 mOsm). All pipette tip resistances were 2-4 MΩ. Series resistances of 3-10 MΩ were compensated 40-80%. All cells were voltage-clamped to a holding potential of −90 mV unless otherwise specified. The sampling frequency was 5 kHz. Na^+ currents were elicited by 30-ms pulse to 0 mV from −90 mV applied every 10 s. […]

Nav1.7 = Nav1.7 (Homo sapiens (Human), UniProt Q15858); assay: Voltage-clamp, Nav1.7 in HEK-293 cells; format: cell-based
Chain of Nav1.7 (Q15858 whole entry): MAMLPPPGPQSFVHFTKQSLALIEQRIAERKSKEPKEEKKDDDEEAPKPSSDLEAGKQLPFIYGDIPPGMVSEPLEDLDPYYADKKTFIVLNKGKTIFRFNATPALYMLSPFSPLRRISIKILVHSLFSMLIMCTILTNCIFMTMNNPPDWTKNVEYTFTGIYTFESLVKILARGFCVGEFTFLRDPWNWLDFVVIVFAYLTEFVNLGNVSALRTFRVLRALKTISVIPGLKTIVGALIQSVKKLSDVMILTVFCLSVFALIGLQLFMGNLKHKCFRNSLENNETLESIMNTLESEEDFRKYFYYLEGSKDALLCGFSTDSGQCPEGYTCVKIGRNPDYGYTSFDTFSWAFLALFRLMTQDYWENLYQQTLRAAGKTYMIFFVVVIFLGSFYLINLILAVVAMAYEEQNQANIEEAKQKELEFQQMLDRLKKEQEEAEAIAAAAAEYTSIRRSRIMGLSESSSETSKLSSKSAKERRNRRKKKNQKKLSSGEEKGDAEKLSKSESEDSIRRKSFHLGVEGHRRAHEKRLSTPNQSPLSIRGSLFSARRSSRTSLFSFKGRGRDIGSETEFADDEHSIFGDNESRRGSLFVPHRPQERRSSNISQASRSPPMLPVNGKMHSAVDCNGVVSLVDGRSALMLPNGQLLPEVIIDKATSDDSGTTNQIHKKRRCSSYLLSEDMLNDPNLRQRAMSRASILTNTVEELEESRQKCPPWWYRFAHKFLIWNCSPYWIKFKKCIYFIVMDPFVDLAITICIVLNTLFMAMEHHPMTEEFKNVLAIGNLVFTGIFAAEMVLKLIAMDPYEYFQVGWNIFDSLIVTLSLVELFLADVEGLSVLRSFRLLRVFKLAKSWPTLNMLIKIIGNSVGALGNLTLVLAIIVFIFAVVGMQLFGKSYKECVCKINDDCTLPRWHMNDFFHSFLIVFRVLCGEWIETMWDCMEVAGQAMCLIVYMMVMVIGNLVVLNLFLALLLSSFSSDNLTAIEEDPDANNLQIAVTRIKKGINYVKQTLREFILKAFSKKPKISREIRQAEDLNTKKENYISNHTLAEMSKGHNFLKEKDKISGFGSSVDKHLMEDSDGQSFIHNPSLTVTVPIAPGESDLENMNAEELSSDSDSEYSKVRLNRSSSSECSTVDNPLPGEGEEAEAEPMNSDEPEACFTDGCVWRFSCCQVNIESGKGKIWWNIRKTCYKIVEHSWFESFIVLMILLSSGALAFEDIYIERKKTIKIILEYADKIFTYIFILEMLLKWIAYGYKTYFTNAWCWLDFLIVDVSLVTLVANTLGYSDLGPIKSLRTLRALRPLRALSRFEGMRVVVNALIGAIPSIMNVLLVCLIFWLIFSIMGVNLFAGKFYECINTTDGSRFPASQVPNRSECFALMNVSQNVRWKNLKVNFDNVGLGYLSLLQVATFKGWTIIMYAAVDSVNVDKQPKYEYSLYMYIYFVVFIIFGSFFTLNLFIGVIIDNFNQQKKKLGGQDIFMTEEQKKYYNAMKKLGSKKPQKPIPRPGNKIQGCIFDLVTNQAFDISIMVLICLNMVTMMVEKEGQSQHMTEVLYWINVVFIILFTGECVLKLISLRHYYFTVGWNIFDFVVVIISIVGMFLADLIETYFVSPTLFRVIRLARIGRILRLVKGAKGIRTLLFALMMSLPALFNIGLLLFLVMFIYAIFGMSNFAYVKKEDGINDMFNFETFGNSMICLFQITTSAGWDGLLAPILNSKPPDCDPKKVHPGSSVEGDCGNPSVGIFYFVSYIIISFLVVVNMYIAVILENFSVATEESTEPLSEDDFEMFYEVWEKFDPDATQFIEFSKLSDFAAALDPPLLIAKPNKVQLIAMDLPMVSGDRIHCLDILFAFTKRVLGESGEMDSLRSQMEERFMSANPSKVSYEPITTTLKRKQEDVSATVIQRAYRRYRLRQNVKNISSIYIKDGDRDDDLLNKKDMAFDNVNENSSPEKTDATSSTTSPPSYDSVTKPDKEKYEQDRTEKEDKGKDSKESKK
Method: as §3

Work on `Nc1nc2ccc(SC(F)(F)F)cc2s1` [SKA-19, 6-((trifluoromethyl)thio)benzo[d]thiazol-2-amine] yielded a TD50 ([1]; ip) of 14.3 mg/kg, a TD50 at 1 h ([1]; ip) of 14.3 mg/kg and a TD50 at 4 h ([1]; oral) of 77.4 mg/kg. The deaths (rats; rat, in vivo) was “No deaths”, the neurotoxicity (rats; rats, oral 30 mg/kg, 0.25-4 h) was “without inducing neurotoxicity” and the rats protected ([2]; 6 mg/kg) was 2 out of 8. For the same compound, the rats protected ([2]; 50 mg/kg) was 3 out of 7, the EC50 (KCa2.1; 250 nM free intracellular Ca2+, read-out: EC50 or IC50, KCa2.1) was > 100 µM and the “effect on KCa2.1 currents” value (KCa2.1; 100 and 200 μM) was “very weak effects”. For the same compound, the EC50 (KCa2.2 (SK2); read-out: EC50 or IC50, KCa2.2) was 14 µM, the “maximal increase of KCa2 currents” value (KCa2.2 (SK2); stated for KCa2 currents) was 30 fold and the IC50 (Nav1.1) was 6.9 ± 4.9 µM. The “block of Nav1.7” value (Nav1.7) was “low micromolar range”.
